This is an account of results in US20220251092A1, “CASEIN KINASE 1EPSILON INHIBITOR, PHARMACEUTICAL COMPOSITION AND APPLICATION THEREOF” (HANGZHOU HEALZEN THERAPEUTICS CO., LTD., priority 2019, published 2022).

Data set [1] concerns the target T1, CK1ε (Homo sapiens, UniProt P49674). The experiment in a line: CK1ε kinase activity assay (Caliper, FAM-labelled polypeptide). Format: biochemical. Here is the method: The in-vitro assay of inhibitory activity of the compound herein against CK1ε kinase was:
(1) preparation of 1× kinase basic buffer and stop buffer: • 1×kinase basic buffer: 50 mM HEPES, pH 7.5; and 0.0015% Brij-35; • stop buffer: 100 mM HEPES, pH 7.5; 0.015% Brij-35; 0.2% Coating Reagent #3; and 50 mM EDTA.
(2) preparation of the test compound: • a 50× (“n×” represents dilution factor, same hereafter) stock solution of the compound with DMSO (10 mM, DMSO) to obtain stock solution I for use; […] of stock solution I was placed in a 96-well plate, each compound sample was diluted by 5-fold serial dilution till 10 concentrations was obtained while ensuring 10 μl of drug solution in each well; meanwhile, 100 μl of DMSO was used as a blank control group and a negative control group without enzyme substrate; • a separate 96-well plate was prepared, and to 10 μl of the above compound,
90 μl of 1× kinase foundation buffer was added, mixed well for 10 min to obtain a mixture.

For data set [2], the system named is OCI-LY10 cells. The data set is described as follows: In-vitro anti-tumor activity, OCI-LY10 cells, CCK-8. In kind it is cell-based, human. The following applies: for IC50: Homo sapiens, OCI-LY10, 72h, CCK-8. How it is done: The in-vitro anti-tumor activities of the synthesized compounds were determined using a diffuse large B-cell lymphoma (OCI-LY10) cell strain:
Drug preparation method: The drug was dissolved in DMSO to make a stock solution of 10 mM and diluted in a certain ratio to obtain 7 different concentrations (test concentration: 100×).
In vitro culture of tumor cells: The selected OCI-LY10 cells were incubated with a medium of IMDM+fetal bovine serum in a 5% CO2 cell culture incubator at 37° C., and were passaged when the cell density grew to 70-90% (adherent cells were passaged after digestion with Duck's EDTA) for later experiments as needed. Four thousand cells/200 μl/well were seeded in a 96-well plate and incubated overnight in a 5% CO2 cell incubator at 37° C. Two μl of the compounds were dispensed in each well at final concentrations of […], and incubation was performed together for 72h in a 5% CO2 cell incubator at 37° C. with DMSO (2%) as control. After 72h, 20 μl of CCK-8 solution was added and the plate was placed in a 5% CO2 cell culture incubator at 37° C. for 4h. Wells with the corresponding amounts of cell culture medium and CCK-8 solution but without cells were used as blank controls. The absorbance (OD values) was measured at 450 nm using an enzyme marker, and the obtained data were used to calculate the IC50.

In data set [3] the test system is OCI-LY10 xenograft tumor. The data set is described as follows: In vivo pharmacodynamic study, OCI-LY10 subcutaneous xenograft in SCID mice. The following applies: combinations with 17a 6 mg/kg PO QD. On the set-up: species or system SCID mouse. How it is done: OCI-LY10 cells were cultured in an IMDM medium containing 20% FBS and maintained in a 5% CO2 incubator at 37° C. with saturated humidity. OCI-LY10 cells of logarithmic phase were collected and resuspended in an IMDM basic medium containing 50% Matrigel, and the cell concentration was adjusted to 5×10^7/ml. Subcutaneous inoculation of 0.1 ml of the cell suspension was performed aseptically in the right dorsum of mice at a concentration of 5×10^6/0.1 ml/mouse. Once the tumor volume reached about 150 mm^3, the animals were randomly grouped according to tumor volume so that the difference in tumor volume between the groups was less than 10% of the mean value. The date of grouping was recorded as Day 0, and drug administration was started based on the body weight of the animals. During drug administration, body weight of certain animals decreased by more than 15% compared to Day 0 (BWL≥15%), drug administration was discontinued for these animals until their body weight recovered (BWL<15%). The body weight and tumor volume of the animals were measured twice a week during the experiment, and clinical signs were observed and recorded daily.
The efficacy in terms of tumor volume was evaluated by the relative tumor proliferation rate T/C ratio, and T/C (%) was calculated as TRTV/CRTV[…], where TRTV is the relative tumor volume (RTV) of the treatment group and CRTV is the RTV of the negative control group. The RTV was calculated as Vt/V0, where V0 is the tumor volume at the time of grouping and Vt is the tumor volume at each measurement. The drug is considered effective with T/CP≤40% according to NMPA guidelines.
The efficacy in terms of tumor weight was evaluated by TGI (tumor weight inhibition) values, TGI 0%=(TWC−TWT)/TWC×[…], where TWC is tumor weight of control group, and TWT is tumor weight of treatment group. The drug is considered effective with TGI≥58% according to NIH guidelines.

The target of data set [4] is T1, CK1ε. The following applies: cited from earlier work.
Data set [5] can be described thus: Bioavailability study in rats. In kind it is in vivo, SD rats. The following applies: rat; for AUC(0-t) / Cmax / Tmax / bioavailability: Sprague-Dawley, plasma; for bioavailability: PO 10 mg/kg vs IV 1 mg/kg of II-A-7a. How it is done: SD rats were used as the experimental animals, to which drugs of 10 mg/kg were administered by gavage and 1 mg/kg by tail intravenous injection. […] Whole blood (0.3 ml) was collected, 0.1 ml of plasma was separated by centrifugation at 2000 g for 10 min, and the samples were analyzed by LC-MS/MS.

In data set [6] the test system is Karpas299 cells. The experiment in a line: In-vitro anti-tumor activity, Karpas299 cells, CellTiter-Glo. Format: cell-based. The following applies: Homo sapiens, KARPAS-299, Karpas299, 72h. Here is the method:
In-vitro anti-tumor activities of the synthesized compounds were determined using Human Non-Hodgkin's Ki-positive Large Cell Lymphoma (Karpas299) cell strain:
Drug preparation method: The drugs were dissolved in DMSO to make stock solutions of 10 mM and diluted in a certain ratio to obtain 7 different concentrations (test concentration: 100×).
In vitro culture of tumor cells: The selected Karpas299 cells were incubated in a 500 CO2 cell culture incubator at 37° C. using RPMI-1640^+ fetal bovine serum medium. Four thousand cells/100 μl/well were seeded in a 96-well plate and incubated overnight in a 500 CO2 cell incubator at 37° C. Five μl of the compounds were dispensed in each well at final concentrations of 10 μM, 2.5 μM, 0.625 μM, 0.15625 μM, 0.039063 μM, 0.0097656 μM and 0.0024414 μM, and incubation was performed together for 72h in a 5% CO2 cell incubator at 37° C. with DMSO (0.10%) as controls. After 72h, the CellTiter-Glo buffer and reaction substrate were taken out of the fridge and equilibrated to room temperature. The buffer was then poured into a brown bottle containing the substrate. The bottle was turned up and down so that the substrate powder was fully dissolved. […] A white sealing film was attached to the bottom of the well plate, and the chemiluminescence signal of each well was detected with an Enspire microplate reader. […]
Background: ATP-based viability assays read luminescence as a measure of living cells.

Setting [7] is: Table 4, 100 mg/kg PO QD Day 0-38.
The mark [8] stands for this setting: Table 5, 50 mg/kg PO QD Day 0-38.

Where two headings read alike, the source gives them in different places.

T1 sequence (P49674 whole entry): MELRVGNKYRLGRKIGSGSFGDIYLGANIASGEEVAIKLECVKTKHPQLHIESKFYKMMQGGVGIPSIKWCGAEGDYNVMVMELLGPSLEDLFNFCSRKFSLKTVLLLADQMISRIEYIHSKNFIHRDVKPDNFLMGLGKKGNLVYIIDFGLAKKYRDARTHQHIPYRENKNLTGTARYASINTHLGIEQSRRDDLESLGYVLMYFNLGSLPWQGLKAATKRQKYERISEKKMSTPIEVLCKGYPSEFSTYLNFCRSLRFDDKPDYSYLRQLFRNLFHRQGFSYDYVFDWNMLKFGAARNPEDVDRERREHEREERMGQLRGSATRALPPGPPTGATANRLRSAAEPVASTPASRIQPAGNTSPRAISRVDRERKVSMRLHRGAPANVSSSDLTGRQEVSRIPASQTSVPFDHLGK

Broadly, the IC50 is the concentration at which inhibition is half-maximal. In the case of `COc1ccc(-c2nn(C(C)c3nc4ccccc4c(=O)n3-c3ccccc3)c3ncnc(N)c23)c(F)c1F` (stereo not drawn) [II-A-1, 2-(1-(4-amino-3-(2,3-difluoro-4-methoxyphenyl)-1H-pyrazolo[3,4-d]pyrimidin-1-yl)ethyl)-3-phenylquinazolin-4(3H)-one], in data set [1], the IC50 stood at 164 nM. Besides, the IC50 in data set [2] (read-out: IC50) was 142 nM. For the same molecule, in data set [3] (setting [7]), the “RTV Day 39” value is 2.45 ± 0.50, the “T/C (%) Day 39” value worked out at 35.40%, the “TGI (%)” value is on record as 63.91% and the “Tumor weight” value is 0.288 ± 0.064 g.
As to `CC[C@@H](c1nc2cccc(F)c2c(=O)n1-c1ccccc1)n1nc(-c2ccc(OC(C)C)c(F)c2)c2c(N)ncnc21` [CUX-03166], in data set [4] (literature values in WO2017079558A1, read-out: CK1ε (IC50)), the 50% inhibitory concentration (IC50) is 81200 nM.
As a reminder, the AUC(0-t) is the area under the concentration-time curve up to a stated or last time point. A low value points to less exposure. A word on the Cmax: it is the highest concentration seen after dosing. Broadly, the Tmax is the time at which the peak concentration occurs. As usually defined, the bioavailability is the share of a dose that reaches the circulation, judged against a reference dose that is usually intravenous. Low readings indicate little systemic uptake, high ones much systemic uptake. Consider `COc1ccc(-c2nn([C@@H](C)c3nc4cccc(Cl)c4c(=O)n3-c3ccccc3)c3ncnc(N)c23)c(F)c1F.O=S(=O)(O)O` [II-D-6, (S)-2-(1-(4-amino-3-(2,3-difluoro-4-methoxyphenyl)-1H-pyrazolo[3,4-d]pyrimidin-1-yl)ethyl)-5-chloro-3-phenylquinazolin-4(3H)-one sulfate], for which, in data set [5] (PO 10 mg/kg), the AUC(0-t) came to 21500 ng·h/mL, the highest level (Cmax) was 2130 ng/mL and the time to peak (Tmax) worked out at 1.67 h. The molecule also had a bioavailability in data set [5] of 29.8%. For the same molecule, the increase in bioavailability in data set [5] (salt vs compound in the free state (II-A-7a)) was determined as 3.7 fold.
With `COc1ccc(-c2nn(C(C)c3nc4cccc(Cl)c4c(=O)n3-c3ccccc3)c3ncnc(N)c23)c(F)c1F` (stereo not drawn) [II-A-7, 2-(1-(4-amino-3-(2,3-difluoro-4-methoxyphenyl)-1H-pyrazolo[3,4-d]pyrimidin-1-yl)ethyl)-5-chloro-3-phenylquinazolin-4(3H)-one], the half-inhibitory concentration (IC50) in data set [1] turned out to be 97 nM. Besides, the “fold increase of inhibitory activity against CK1ε” value in data set [1] (compared to compound C) was 7.2 fold. Moreover, the half-inhibitory concentration (IC50) in data set [2] (read-out: IC50) was determined as 22 nM. Further, the IC50 in data set [2] (read-out: IC50 value) was 22 nM. Further, the “fold increase of OCI-LY10 proliferation inhibitory activity” value in data set [2] (compared to compound C) came out at 123 fold. Moreover, in data set [3] (setting [7]), the “RTV Day 39” value amounted to 2.23 ± 0.15, the “T/C (%) Day 39” value was 32.35%, the “TGI (%)” value was determined as 66.29% and the “Tumor weight” value amounted to 0.269 ± 0.028 g.
With `CC(C)Oc1ccc(-c2nn([C@@H](C)c3nc4cccc(F)c4c(=O)n3-c3ccccc3)c3ncnc(N)c23)cc1F` [CUX-031723], the half-maximal inhibitory concentration (IC50) in data set [4] (WO2017079558A1, read-out: IC50 of CK1ε) is 9360 nM.
With `COc1ccc(-c2nn([C@@H](C)c3nc4ccccc4c(=O)n3-c3ccccc3)c3ncnc(N)c23)c(F)c1F` [II-A-1a, (S)-2-(1-(4-amino-3-(2,3-difluoro-4-methoxyphenyl)-1H-pyrazolo[3,4-d]pyrimidin-1-yl)ethyl)-3-phenylquinazolin-4(3H)-one], the IC50 in data set [6] was 988 nM. In addition, the IC50 in data set [1] was 108 nM. In addition, the IC50 in data set [2] (read-out: IC50) stood at 112 nM. In addition, in data set [3] (setting [8]), the “RTV Day 39” value was found to be 1.69 ± 0.27, the “T/C (%) Day 39” value is reported as 23.12%, the “TGI (%)” value was 77.46% and the “Tumor weight” value is reported as 0.270 ± 0.043 g.
On to `COc1ccc(-c2nn([C@@H](C)c3nc4cccc(Cl)c4c(=O)n3-c3ccccc3)c3ncnc(N)c23)c(F)c1F` [II-A-7a, (S)-2-(1-(4-amino-3-(2,3-difluoro-4-methoxyphenyl)-1H-pyrazolo[3,4-d]pyrimidin-1-yl)ethyl)-5-chloro-3-phenylquinazolin-4(3H)-one], for which, in data set [5] (IV 1 mg/kg), the area under the curve AUC(0-t) stood at 7200 ng·h/mL and the concentration peaked (Cmax) at 1520 ng/mL. For the same molecule, in data set [5] (PO 10 mg/kg), the AUC(0-t) turned out to be 5780 ng·h/mL, the Cmax was determined as 456 ng/mL and the Tmax is 6 h. Moreover, in data set [5], the bioavailability worked out at 8.02%. The molecule also gave an IC50 in data set [6] of 855 nM. Besides, inhibition in data set [1] was half-maximal at 45 nM (IC50). Further, the concentration for half-maximal inhibition (IC50) in data set [2] (read-out: IC50) amounted to 10.2 nM. Further, in data set [3] (setting [8]), the “RTV Day 39” value amounted to 2.11 ± 0.60, the “T/C (%) Day 39” value was determined as 28.86%, the “TGI (%)” value is recorded as 72.70% and the “Tumor weight” value was determined as 0.327 ± 0.048 g.
